Assay results from patent US10048562B2, “Electrophoretic fluid” (Merck Patent GmbH, priority 2012, dated 2018).

Test: Saturation of dye in decane (solubility)
Assay type: physicochemical
Conditions: saturated solution in decane

Q: For `CCCCCCCCCCCCCCCCCCN(CCCCCCCCCCCCCCCCCC)c1cc(NC(C)=O)c(/N=N/c2c(C#N)cc([N+](=O)[O-])cc2C#N)cc1OC` [Dye 1], which “Saturation wt % in decane” value is on record?
A: 0.003 wt %

Q: Which “Saturation wt % in decane” value does the source give for `CCCCCCCCN(CCCCCCCC)c1ccc(/N=N/c2snc(C)c2C#N)c(NC(C)=O)c1` [Dye 4, N-(2-((4-Cyano-3-methylisothiazol-5-yl)diazenyl)-5-(dioctylamino)phenyl)acetamide] here?
A: 0.19 wt %

Q: With `CCCCCCCCCCCCCCc1ccc(/N=N/c2c(C)c(C#N)c(=O)n(CC(CC)CCCC)c2O)cc1` (stereo not drawn) [Dye 5, (E)-1-(2-Ethylhexyl)-6-hydroxy-4-methyl-2-oxo-5-((4-tetradecylphenyl)diazenyl)-1,2-dihydropyridine-3-carbonitrile] as the compound, how does the “Saturation wt % in decane” value read?
A: 1.03 wt %

Q: With `CCCCCCCCCCCCCCc1ccc(/N=N/c2c(C)cc(=O)n(CC(CC)CCCC)c2O)cc1` (stereo not drawn) [Dye 6, (E)-1-(2-ethylhexyl)-6-hydroxy-4-methyl-5-((4-tetradecylphenyl)diazenyl)pyridin-2(1H)-one] as the compound, how does the “Saturation wt % in decane” value read?
A: 3.72 wt %

Q: For `CCCCc1ccc(/N=N/c2ccc(N(CCCC)CCCC)cc2)cc1` [Dye 7], which “Saturation wt % in decane” value is on record?
A: 9.95 wt %

Q: Which “Saturation wt % in decane” value does the source give for `CCCCCCCCN(CCCCCCCC)c1ccc(/N=N/c2ccc([N+](=O)[O-])cc2)c(C)c1` [Dye 8, (E)-3-Methyl-4-((4-nitrophenyl)diazenyl)-N,N-dioctylaniline] here?
A: 10.50 wt %
